For assay [1], the target named is NMDAR. The conditions noted are these: [3H]-MK-801, rat cortex and hippocampus membranes; read-out: NMDAR affinity; cited from earlier work.
For assay [2], the target named is T1, NET (Homo sapiens, UniProt P23975). The experiment in a line: NIMH PDSP radioligand binding, NET. The procedure: (§1) Radioligands and concentrations used for additional 45 CNS receptor binding assays are listed as supporting information (S1 Table). This work was performed by the National Institute of Mental Health Psychoactive Drug Screening Program (NIMH PDSP) as described previously.[26] Briefly target compounds were dissolved in DMSO and subjected to a primary screen at 10,000 nM concentration. […] Additional experimental details are available in the NIMH PDSP assay protocol book.
T1 sequence (P23975 whole entry): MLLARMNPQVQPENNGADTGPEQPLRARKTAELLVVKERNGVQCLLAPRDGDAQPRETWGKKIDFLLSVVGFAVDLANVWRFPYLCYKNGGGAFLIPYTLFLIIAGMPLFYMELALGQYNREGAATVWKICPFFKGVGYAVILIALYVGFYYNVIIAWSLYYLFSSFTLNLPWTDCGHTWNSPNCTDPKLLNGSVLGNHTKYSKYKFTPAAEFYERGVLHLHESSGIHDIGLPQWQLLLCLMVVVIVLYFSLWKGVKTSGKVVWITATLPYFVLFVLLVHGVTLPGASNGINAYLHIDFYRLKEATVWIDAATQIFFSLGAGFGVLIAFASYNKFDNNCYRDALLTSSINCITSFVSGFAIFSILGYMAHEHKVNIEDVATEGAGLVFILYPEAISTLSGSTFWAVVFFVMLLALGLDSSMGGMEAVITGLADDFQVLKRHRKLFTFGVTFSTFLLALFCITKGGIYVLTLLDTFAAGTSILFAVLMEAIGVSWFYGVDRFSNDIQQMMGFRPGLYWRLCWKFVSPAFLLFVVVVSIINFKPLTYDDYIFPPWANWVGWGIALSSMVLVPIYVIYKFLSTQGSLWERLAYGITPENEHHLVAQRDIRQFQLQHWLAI

The target of assay [3] is T1, NET. In words: Monoamine reuptake inhibition assay, NET in HEK293 cells. The conditions noted are these: for Hill slope NET reuptake inhibition: HEK293 cells. Further details: expressed in transfected cells; host or cells: HEK293. The assay is classed as cell-based. How it is done: (§2) Monoamine reuptake inhibition assays were performed via the NIMH PDSP as previously described.[28] In brief, the neurotransmitter transporter uptake assay kit (R8174) (Molecular Devices) was used. Human monoamine transporters (DAT, NET and SERT) were stably expressed in HEK293 cells. Assay buffer consisted of 20 mM HEPES, 1x HBSS at pH 7.4. Cells were plated in Pol-L-Lys (PLL) coated 384-well black clear bottom cell culture plates with a density of 15,000 cells/well. Cells were incubated for at least 6 h prior to assay. Media was removed and replaced with 20 μL assay buffer and 5 μL of drug or positive control (cocaine or nisoxetine) as a 5X stock. Cells were incubated for 30 min at 37°C. 25 μL of dye solution was then added and following an additional 30 min incubation (at 37°C) fluorescence intensity was measured using a FlexStation II (bottom read mode, excitation wavelength = […], emission = 520 nM with a cutoff of 510 nM). […] Additional details are available in the NIMH PDSP assay protocol book.

Assay [4] has as its target T2, DAT (Homo sapiens, UniProt Q01959). In words: Monoamine reuptake inhibition assay, DAT in HEK293 cells. As to conditions: for Hill slope DAT reuptake inhibition: HEK293 cells. Further details: expressed in transfected cells; host or cells: HEK293. In kind it is cell-based. The procedure: as §2
Assay [5] deals with PCP site within the NMDAR channel. In words: NMDAR binding, [3H]-MK-801 displacement in rat forebrain homogenate.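 For all read-outs here: IC50 by nonlinear regression of percent specific binding versus log concentration, Ki from IC50 via Cheng-Prusoff, raw counts in CPM, duplicates repeated at least three times.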 As to conditions: for Ki: read-out: Ki ± SEM, [3H]-(+)-MK-801, rat forebrain, Cheng-Prusoff; for [3H]-MK-801 binding counts (Count1-3): raw counts, three counts.
Description: (§3) The reaction was terminated by vacuum filtration using a 24 well cell harvester (Brandel, Gaithersburg, MD) over presoaked GF/B glass fiber filters (Brandel, Gaithersburg, MD). Filters were washed with room temperature assay buffer (3 x 5 mL). […] IC50 values were determined in Graphpad Prism 5.0 using non-linear regression with log-concentration plotted against percent specific binding. […] Ki values were calculated using the equation of Cheng and Prusoff [24]. […] Protein concentration was determined via the Bradford method using Coomassie protein assay reagent (Sigma, USA) [25] with rat albumin (Sigma, USA) as standard. Experiments were performed in duplicate and repeated a minimum of three times.
The target in another assay is T3, Sigma 2 (Rattus norvegicus, UniProt Q5U3Y7).
T3 sequence (Q5U3Y7 1-176): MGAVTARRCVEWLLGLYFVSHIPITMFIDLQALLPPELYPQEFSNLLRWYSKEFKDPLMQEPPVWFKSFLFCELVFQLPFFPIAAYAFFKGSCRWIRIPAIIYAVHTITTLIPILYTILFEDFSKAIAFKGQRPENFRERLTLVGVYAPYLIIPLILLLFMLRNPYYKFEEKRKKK
The experiment in a line: NIMH PDSP radioligand binding, Sigma 2. The procedure: as §1

The target in a further assay is M2 (Homo sapiens, UniProt P08172). The experiment in a line: NIMH PDSP radioligand binding, M2.
M2, sequence (P08172 whole entry): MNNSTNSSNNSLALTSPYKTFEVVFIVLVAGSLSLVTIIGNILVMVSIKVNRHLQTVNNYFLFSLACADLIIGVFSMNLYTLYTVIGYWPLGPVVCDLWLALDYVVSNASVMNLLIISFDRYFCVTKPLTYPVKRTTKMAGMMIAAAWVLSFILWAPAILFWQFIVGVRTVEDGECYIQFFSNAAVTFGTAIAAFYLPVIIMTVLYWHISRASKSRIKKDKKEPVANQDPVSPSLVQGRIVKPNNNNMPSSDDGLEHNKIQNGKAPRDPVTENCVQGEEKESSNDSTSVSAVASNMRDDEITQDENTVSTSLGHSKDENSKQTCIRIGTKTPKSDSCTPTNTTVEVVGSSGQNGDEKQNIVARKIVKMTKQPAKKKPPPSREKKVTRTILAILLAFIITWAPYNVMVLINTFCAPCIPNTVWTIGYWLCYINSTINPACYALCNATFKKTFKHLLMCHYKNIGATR
The target of assay [6] is T2, DAT. In words: NIMH PDSP radioligand binding, DAT. How it is done:
as §1

The target of the next assay is H3 (Homo sapiens, UniProt Q9Y5N1). The experiment in a line: NIMH PDSP radioligand binding, H3. The procedure: as §1
H3, sequence (Q9Y5N1 whole entry): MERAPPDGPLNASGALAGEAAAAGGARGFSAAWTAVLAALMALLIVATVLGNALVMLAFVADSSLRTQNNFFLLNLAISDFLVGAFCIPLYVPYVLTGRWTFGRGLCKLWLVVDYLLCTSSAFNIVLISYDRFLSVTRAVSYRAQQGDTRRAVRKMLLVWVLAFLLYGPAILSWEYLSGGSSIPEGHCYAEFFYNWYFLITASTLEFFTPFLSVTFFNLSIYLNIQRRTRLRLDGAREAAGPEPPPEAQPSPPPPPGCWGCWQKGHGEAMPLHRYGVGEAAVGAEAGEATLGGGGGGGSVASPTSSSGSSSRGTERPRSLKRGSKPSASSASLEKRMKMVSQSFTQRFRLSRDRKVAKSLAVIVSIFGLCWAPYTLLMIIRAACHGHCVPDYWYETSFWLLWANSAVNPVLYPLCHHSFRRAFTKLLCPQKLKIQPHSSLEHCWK
The target in another assay is M5 (Homo sapiens, UniProt P08912). The experiment in a line: NIMH PDSP radioligand binding, M5.
M5, sequence (P08912 whole entry): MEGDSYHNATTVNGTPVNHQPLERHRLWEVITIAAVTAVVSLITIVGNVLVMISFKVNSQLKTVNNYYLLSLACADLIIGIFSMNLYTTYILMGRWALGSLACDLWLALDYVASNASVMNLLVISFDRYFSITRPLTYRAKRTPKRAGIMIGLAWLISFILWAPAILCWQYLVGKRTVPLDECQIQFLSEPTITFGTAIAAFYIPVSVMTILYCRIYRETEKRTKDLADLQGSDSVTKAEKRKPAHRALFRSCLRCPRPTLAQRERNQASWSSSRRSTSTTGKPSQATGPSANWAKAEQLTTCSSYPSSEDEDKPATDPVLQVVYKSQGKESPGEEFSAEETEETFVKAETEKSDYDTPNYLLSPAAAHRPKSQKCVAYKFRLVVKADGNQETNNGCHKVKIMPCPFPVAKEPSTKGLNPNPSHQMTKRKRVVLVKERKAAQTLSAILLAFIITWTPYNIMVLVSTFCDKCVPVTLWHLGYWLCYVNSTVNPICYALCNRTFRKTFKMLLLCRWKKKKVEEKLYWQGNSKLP
A further assay addresses M1 (Homo sapiens, UniProt P11229). The experiment in a line: NIMH PDSP radioligand binding, M1.
Assay [7] has as its system PCP site within the NMDAR channel.
Description: as §3
In a further assay the target is M3 (Homo sapiens, UniProt P20309). The experiment in a line: NIMH PDSP radioligand binding, M3.
M3, sequence (P20309 whole entry): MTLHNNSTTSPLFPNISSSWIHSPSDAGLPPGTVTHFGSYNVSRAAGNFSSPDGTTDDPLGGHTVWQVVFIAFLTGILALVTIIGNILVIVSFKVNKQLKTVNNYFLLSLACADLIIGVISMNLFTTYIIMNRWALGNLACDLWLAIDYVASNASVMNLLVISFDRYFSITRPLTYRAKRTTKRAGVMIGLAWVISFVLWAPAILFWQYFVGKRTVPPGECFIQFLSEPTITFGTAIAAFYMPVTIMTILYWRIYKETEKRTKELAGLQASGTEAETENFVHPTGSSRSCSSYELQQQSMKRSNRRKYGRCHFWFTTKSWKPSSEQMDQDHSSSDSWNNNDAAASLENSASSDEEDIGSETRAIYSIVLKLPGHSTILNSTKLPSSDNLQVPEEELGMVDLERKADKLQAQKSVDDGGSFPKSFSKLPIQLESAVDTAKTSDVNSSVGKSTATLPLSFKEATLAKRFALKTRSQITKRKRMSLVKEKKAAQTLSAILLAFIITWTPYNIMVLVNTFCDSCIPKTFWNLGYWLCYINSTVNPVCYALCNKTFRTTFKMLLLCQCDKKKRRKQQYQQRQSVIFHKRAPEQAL
Another assay deals with T4, Alpha2C (Homo sapiens, UniProt P18825).
T4 sequence (P18825 1-462): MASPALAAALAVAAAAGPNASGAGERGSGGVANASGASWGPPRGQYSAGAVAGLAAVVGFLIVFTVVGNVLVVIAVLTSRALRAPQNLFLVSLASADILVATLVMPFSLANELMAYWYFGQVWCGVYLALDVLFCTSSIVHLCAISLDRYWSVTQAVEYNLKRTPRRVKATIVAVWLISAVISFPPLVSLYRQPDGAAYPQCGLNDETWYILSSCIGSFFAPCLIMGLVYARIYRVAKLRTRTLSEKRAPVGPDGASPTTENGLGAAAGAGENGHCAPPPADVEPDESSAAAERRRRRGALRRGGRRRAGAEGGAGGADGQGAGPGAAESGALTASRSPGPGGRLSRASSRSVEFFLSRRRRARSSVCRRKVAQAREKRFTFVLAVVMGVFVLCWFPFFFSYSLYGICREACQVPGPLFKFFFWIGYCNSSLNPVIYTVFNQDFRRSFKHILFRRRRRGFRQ
In words: NIMH PDSP radioligand binding, Alpha2C. How it is done:
as §1

The target of the next assay is T5, Human SERT (Homo sapiens, UniProt P31645).
T5 construct: expressed in transfected cells; host or cells: HEK293
T5 sequence (P31645 whole entry): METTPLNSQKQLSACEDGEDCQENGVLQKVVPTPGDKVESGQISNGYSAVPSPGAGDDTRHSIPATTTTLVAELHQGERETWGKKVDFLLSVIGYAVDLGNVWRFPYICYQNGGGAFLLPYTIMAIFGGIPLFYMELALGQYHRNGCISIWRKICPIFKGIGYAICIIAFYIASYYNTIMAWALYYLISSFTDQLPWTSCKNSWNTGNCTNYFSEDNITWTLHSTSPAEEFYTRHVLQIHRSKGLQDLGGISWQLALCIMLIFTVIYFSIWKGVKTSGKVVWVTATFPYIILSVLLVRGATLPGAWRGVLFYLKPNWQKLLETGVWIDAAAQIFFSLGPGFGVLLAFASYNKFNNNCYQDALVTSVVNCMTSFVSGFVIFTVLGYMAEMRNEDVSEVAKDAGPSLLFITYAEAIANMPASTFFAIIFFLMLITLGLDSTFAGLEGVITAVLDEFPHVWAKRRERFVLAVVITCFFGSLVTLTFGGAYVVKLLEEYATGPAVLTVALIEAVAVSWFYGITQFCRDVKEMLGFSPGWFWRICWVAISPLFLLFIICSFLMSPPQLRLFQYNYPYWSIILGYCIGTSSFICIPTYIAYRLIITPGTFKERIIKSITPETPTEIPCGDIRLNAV
The experiment in a line: Monoamine reuptake inhibition assay, SERT in HEK293 cells. The assay is classed as cell-based. How it is done: as §2

In the next assay the target is H1 (Homo sapiens, UniProt P35367). The experiment in a line: NIMH PDSP radioligand binding, H1. The procedure:
as §1

A further assay deals with KOR (Homo sapiens, UniProt P41145). The experiment in a line: NIMH PDSP radioligand binding, KOR. The procedure: as §1
For another assay, the system named is NMDA receptor. In words: NMDA receptor-mediated fEPSP (NMDAR-fEPSP) in CA1 of hippocampal slices. In kind it is cell-based, rat. The conditions noted are these: 10 μM. How it is done: Male Wistar rats (Crl:Wi; Charles River, UK) aged 9–10 wk were sacrificed by neck vertebral dislocation (schedule 1 method) according to the United Kingdom (Scientific Procedures) Act of 1986. […] The brain was cut parasagittally into 400 μm sections and hippocampal slices were removed, stored and placed in a submerged recording chamber at 28–30°C. Recordings of synaptic activity were made, analyzed and presented as described. A bipolar electrode was used to deliver stimuli (0.03 Hz) to the Schaffer collateral pathway to enable recording of field excitatory synaptic potentials (fEPSPs) using a glass microelectrode positioned in the stratum radiatum of area CA1. […] After 30 min of stable control responses, 1 and 10 μM solutions of the individual compounds were added to the perfusate for 3–12 h while recording the amplitude and area of the NMDAR-fEPSP on-line using WinLTP [31]. Single exponential curves were fitted to the graphs and curves extrapolated to show likely half-times and minimum plateau responses achieved with each concentration of the compounds. Raw data for all fEPSP experiments are provided as supporting information (S2, S3 and S4 Files).

Another assay addresses MOR (Homo sapiens, UniProt P35372). The experiment in a line: NIMH PDSP radioligand binding, MOR. The procedure:
as §1

The target of a further assay is M4 (Homo sapiens, UniProt P08173). The experiment in a line: NIMH PDSP radioligand binding, M4.
Another assay has as its target Alpha2A (Homo sapiens, UniProt P08913). The experiment in a line: NIMH PDSP radioligand binding, Alpha2A. The procedure: as §1
Assay [8] has as its system NMDAR. Further details: method as in earlier work. The conditions noted are these: [3H]-TCP; cited from earlier work.

Each structure is given as a SMILES string. Several values for one entry are separate records, joined by “and”; a condition that tells them apart may be missing. Equal values may be shown once. Where a name gives a salt, the structure may show the parent alone. Bounds are passed on as bounds.

T2 sequence (Q01959 whole entry): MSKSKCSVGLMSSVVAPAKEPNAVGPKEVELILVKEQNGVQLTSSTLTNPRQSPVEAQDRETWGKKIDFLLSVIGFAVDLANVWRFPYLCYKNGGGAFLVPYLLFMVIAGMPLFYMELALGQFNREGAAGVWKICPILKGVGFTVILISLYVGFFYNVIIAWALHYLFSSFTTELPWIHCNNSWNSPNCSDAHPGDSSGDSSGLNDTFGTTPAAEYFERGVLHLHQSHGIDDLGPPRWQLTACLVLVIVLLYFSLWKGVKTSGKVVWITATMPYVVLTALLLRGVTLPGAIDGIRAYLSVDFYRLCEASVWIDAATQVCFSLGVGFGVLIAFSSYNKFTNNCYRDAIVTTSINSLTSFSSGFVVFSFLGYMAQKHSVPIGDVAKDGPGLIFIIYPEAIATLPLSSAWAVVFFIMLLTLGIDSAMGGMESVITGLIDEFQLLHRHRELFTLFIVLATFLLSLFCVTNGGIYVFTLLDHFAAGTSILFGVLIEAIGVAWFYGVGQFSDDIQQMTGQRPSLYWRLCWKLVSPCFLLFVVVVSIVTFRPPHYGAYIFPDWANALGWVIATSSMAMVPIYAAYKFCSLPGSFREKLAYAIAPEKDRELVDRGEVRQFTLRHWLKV
M1, sequence (P11229 whole entry): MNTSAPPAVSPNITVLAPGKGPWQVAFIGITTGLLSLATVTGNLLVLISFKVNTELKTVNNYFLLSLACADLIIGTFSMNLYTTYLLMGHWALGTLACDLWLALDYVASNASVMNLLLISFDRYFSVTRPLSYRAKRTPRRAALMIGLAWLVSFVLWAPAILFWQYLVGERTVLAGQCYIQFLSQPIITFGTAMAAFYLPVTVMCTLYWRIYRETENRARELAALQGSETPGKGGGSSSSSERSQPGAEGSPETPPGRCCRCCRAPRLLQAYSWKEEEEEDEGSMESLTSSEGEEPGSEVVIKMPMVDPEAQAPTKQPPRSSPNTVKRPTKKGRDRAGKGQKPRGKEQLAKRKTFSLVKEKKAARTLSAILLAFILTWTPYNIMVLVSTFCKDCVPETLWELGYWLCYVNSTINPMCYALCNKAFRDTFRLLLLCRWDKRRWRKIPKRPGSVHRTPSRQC
H1, sequence (P35367 whole entry): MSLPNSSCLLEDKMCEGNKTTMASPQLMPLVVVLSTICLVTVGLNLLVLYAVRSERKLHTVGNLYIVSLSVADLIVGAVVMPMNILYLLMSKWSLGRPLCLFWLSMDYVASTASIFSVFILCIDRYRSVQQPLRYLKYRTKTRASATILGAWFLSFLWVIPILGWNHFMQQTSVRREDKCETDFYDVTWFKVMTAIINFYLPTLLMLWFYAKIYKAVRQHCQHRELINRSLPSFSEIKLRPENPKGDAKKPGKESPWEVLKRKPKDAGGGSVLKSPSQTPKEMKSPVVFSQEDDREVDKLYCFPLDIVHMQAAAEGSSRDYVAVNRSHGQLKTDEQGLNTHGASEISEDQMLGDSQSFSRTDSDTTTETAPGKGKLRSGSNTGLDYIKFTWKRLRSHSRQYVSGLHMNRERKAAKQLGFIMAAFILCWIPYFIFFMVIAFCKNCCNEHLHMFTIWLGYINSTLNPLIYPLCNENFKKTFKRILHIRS

As for `c1ccc(C[C@@H](c2ccccc2)N2CCCCC2)cc1` [(S-)-DPH], at NMDAR [1], the Ki is 120 nM.

As to `c1ccc(C[C@H](c2ccccc2)N2CCCCC2)cc1` [(R)-DPH], on NMDAR [1], the Ki is 5250 nM.

With `COc1ccc(C(Cc2ccccc2)N2CCCCC2)cc1` (centres unmarked) [4-MXP, 4-methoxy-diphenidine], the Ki on NET [2] came out at 2700 nM; in assay [5], 461 ± 44.5 nM; at Sigma 2 it was 564 nM; at M2, 1620 nM; on DAT [6], 157 nM; on H3, 556 nM. The Ki at M5 came to 2760 nM; at M1 it was 2430 nM; on M3, 2400 nM; on Alpha2C, 2510 nM; at H1 it was 4.53 µM. For the same compound, the IC50 on NET [3] was found to be 22.5 µM; at DAT [4], 2230 nM; in assay [7] it was 724 ± 69.9 nM; against Human SERT, 19 µM. The “Hill slope NET reuptake inhibition” value at NET [3] stood at 1.75. Moreover, the “Hill slope DAT reuptake inhibition” value on DAT [4] is 0.96. The “affinity at DAT relative to NMDAR” value on DAT [6] (higher at DAT) is ~ 2.5 fold. The “Hill slope SERT reuptake inhibition” value on Human SERT (HEK293 cells) is reported as 1.12.

As to `COc1cccc(C(Cc2ccccc2)N2CCCCC2)c1` (centres unmarked) [3-MXP, 3-methoxy-diphenidine], the Ki on NET [2] was 325 nM; in assay [5] it was 19.3 ± 1.7 nM; on Sigma 2, 633 nM; on M2, 2970 nM; at DAT [6], 88 nM; at H3, 1470 nM. The Ki on M5 came out at 1120 nM; on M1, 2400 nM; at KOR, 2260 nM; on M3, 2300 nM; on H1, 2.03 µM. For the same compound, the IC50 against NET [3] was 2.71 µM; on DAT [4], 587 nM; in [7], 30.3 ± 2.6 nM; against Human SERT it was more than 10 µM. On NET [3], the “Hill slope NET reuptake inhibition” value turned out to be 0.95. The “Hill slope DAT reuptake inhibition” value on DAT [4] is reported as 0.92.

With `CC12CC3CC(C)(C1)CC(N)(C3)C2` [Memantine, memantine hydrochloride], the “[3H]-MK-801 binding counts (Count1-3)” value is 54.75 and 56.13 and 57.01 in assay [5] (Assay 6, memantine concentration 1.00E-04); 80 and 85.76 and 84.26 in assay [5] (Assay 6, memantine concentration 1.00E-05); 302 and 309.15 and 302.79 in [5] (Assay 6, memantine concentration 1.00E-06); 630.88 and 668.92 and 629.83 in [5] (Assay 6, memantine concentration 1.00E-07); 740.13 and 745.68 and 749.23 in assay [5] (Assay 6, memantine concentration 1.00E-08); 755.01 and 781.68 and 787.36 in assay [5] (Assay 6, memantine concentration 1.00E-09). Besides, the “[3H]-MK-801 binding counts (Count1-3)” value is 758.88 and 769.56 and 771.23 in assay [5] (Assay 6, memantine concentration 1.00E-10); 49.38 and 49.13 and 46.88 in assay [5] (Assay 6 duplicate, memantine concentration 1.00E-04); 91.38 and 89.51 and 86.76 in assay [5] (Assay 6 duplicate, memantine concentration 1.00E-05); 307.63 and 313.65 and 307.54 in [5] (Assay 6 duplicate, memantine concentration 1.00E-06); 637.88 and 639.55 and 638.34 in [5] (Assay 6 duplicate, memantine concentration 1.00E-07); 730.14 and 762.94 and 750.86 in assay [5] (Assay 6 duplicate, memantine concentration 1.00E-08). Further, the “[3H]-MK-801 binding counts (Count1-3)” value in assay [5] (Assay 6 duplicate, memantine concentration 1.00E-09) is 757.26 and 761.06 and 761.99; in assay [5] (Assay 6 duplicate, memantine concentration 1.00E-10), 762.51 and 773.44 and 773.61. The Ki in assay [5] turned out to be 378 ± 26.3 nM. In assay [7], this compound came in with an IC50 of 594 ± 41.3 nM.

Take `NC(CCCP(=O)(O)O)C(=O)O` [D-AP5, reference compound]: the “small persistent deflection remaining of the NMDAR-fEPSP” value in the assay on NMDA receptor is listed as less than 20%.

For `CNC1(c2ccccc2Cl)CCCCC1=O` (centres unmarked) [Ketamine, ketamine, reference compound], the Ki in assay [5] worked out at 324 ± 19.2 nM. The compound also displayed an IC50 in assay [7] of 508 ± 30.1 nM.

Turning to `Clc1ccccc1C(Cc1ccccc1)N1CCCCC1` (centres unmarked) [2-Cl-DPH, 2-Cl-diphenidine], the IC50 is 27.1 µM against NET [3], 10500 nM against DAT [4], 14.6 ± 2.1 nM in assay [7] and more than 10 µM against Human SERT. Further, the “Hill slope NET reuptake inhibition” value at NET [3] stood at 1.02. Besides, the “Hill slope DAT reuptake inhibition” value on DAT [4] stood at 0.65. Besides, the Ki on MOR stood at 2060 nM; in assay [5], 9.3 ± 1.3 nM; at Sigma 2 it was 474 nM; on M4, 828 nM; at M2 it was 910 nM; at DAT [6], 357 nM. The Ki on Alpha2A stood at 2690 nM; at M5 it was 291 nM; on M1, 278 nM; on KOR, 642 nM; at M3, 615 nM; on Alpha2C, 1820 nM. At M1 (less than for NMDAR), the “affinities at muscarinic sites relative to NMDAR” value came out at 30 fold. Further, the NMDAR affinity entry with NMDAR [8] is listed as “pM affinity”.

Usually IC50 stands for the midpoint of a concentration-inhibition curve. The low end stands for inhibition by little substance, the high end for a need for much substance.
